# Experimental data as given in US20090176873A1, “NOVEL USE OF ORGANIC COMPOUNDS” (DSM IP ASSETS B.V., priority 2005, published 2009).
# Like-named read-outs stand apart in the source and are kept apart here.
# How the values were obtained:
# PGE2 production = assay: Inhibition of PGE2 formation in LPS-stimulated RAW 264.7 macrophages (EIA); type: cell-based, murine; details: Mus musculus, read-out: PGE2 Production by RAW Cells IC50
# Method: (§1) The anti-inflammatory effects of the compounds were evaluated in activated macrophages by determining the inhibition of the synthesis of nitric oxide and/or PGE2. In order to induce an in vitro “inflammatory response”, murine macrophages RAW264.7 were stimulated with lipopolysaccharide (LPS) without or with graded amounts of the test substances. Murine macrophages RAW 264.7 cells respond to LPS-stimulation by the release of substantial amounts of Prostaglandin E2 (PGE2) and nitric oxide (NO), which is impaired by anti-inflammatory compounds. Prostaglandins PGE2 play a critical role in the inflammation process, while nitric oxide is a hallmark of inflammation in conditions like arthritis. Therefore, we evaluated the effect of the compounds on PGE2 and NO production.
# RAW 264.7 cells: were cultured in Dulbecco's Modified eagle Medium (DMEM) supplemented with 10% fetal calf serum (FCS), 50 units/ml penicillin, 50 μg/ml streptomycin, L-glutamine and nonessential amino acids (NEM, Life Technologies, No. 11140). RAW cells were used between passage 10 and 50. For the experiments, cells were seeded into 6-well, 12-well or 96-well plates at 2, 1 and 0.05 mio cells per well, respectively, and used after 1 or 2 days of pre-culture. Cells were starved in complete DMEM medium containing 0.25% FCS 18 hours before the treatment. Cells were stimulated with LPS (1 μg/ml) for 24 hours in phenol-free DMEM containing 0.25% FCS. Substances to be tested were dissolved in DMSO (usually at 10 mM) and added to the culture medium concomitantly with the stimulus. […] After 24 hours nitrite concentrations were measured in culture supernatants by the Griess reaction and secreted PGE2 was determined by Enzyme immunoassay (EIA) in unstimulated and LPS-stimulated RAW264.7 cells. The compounds were simultaneously tested at different concentrations to obtain a dose response curve. […] The effects of compounds of the formula (I) on PGE2 production was also measured in the murine macrophage cell line RAW 264.7 (Table 1).
# [1] = test system: nitric oxide (NO) production; assay: Inhibition of nitric oxide production in LPS-stimulated RAW264.7 macrophages (Griess reaction); type: cell-based, murine; details: Mus musculus; RAW264.7, LPS 1 μg/ml, 24 hours
# Method: as §1
# RAW 264.7 cells: were cultured in Dulbecco's Modified eagle Medium (DMEM) supplemented with 10% fetal calf serum (FCS), 50 units/ml penicillin, 50 μg/ml streptomycin, L-glutamine and nonessential amino acids (NEM, Life Technologies, No. 11140). […] After 24 hours nitrite concentrations were measured in culture supernatants by the Griess reaction and secreted PGE2 was determined by Enzyme immunoassay (EIA) in unstimulated and LPS-stimulated RAW264.7 cells. […] The effects of compounds of the formula (I) on PGE2 production was also measured in the murine macrophage cell line RAW 264.7 (Table 1).
# COX-2 = assay: Gene expression in LPS-stimulated THP-1 cells, quantitative RT-PCR; type: cell-based, human; details: THP-1, ligustilide 25 μM, LPS 1 μg/ml, 4 hours
# Method: (§2) THP-1 cells, a human monocyte/histiocyte cell line, were cultured in RPMI 1640 medium supplemented with 10% FCS, 50 units/ml penicillin, […] streptomycin, NEM and 2×10^−5 M β-mercaptoethanol. Cells were treated with 50 nM phorbol myristate acetate for 3 days. Cells were starved overnight in medium containing 0.25% FCS before being treated. Cells were stimulated with LPS (1 μg/ml) for 4 hours in phenol-free RPMI containing 0.25% FCS. Ligustilide (25 μM) was added to the culture medium concomitantly with the stimulus. […] LPS-stimulation induces the expression of a large variety of genes including those of inflammatory pathways. After 4 hours of stimulation we have evaluated the impact of ligustilide on the expression of inflammatory genes using quantitative real-time RT-PCR (reverse transcriptase polymerase chain reaction) technology (Table 2).
# IL-1α = assay: as above; type: cell-based, human; details: THP-1, ligustilide 25 μM, LPS 1 μg/ml, 4 hours
# Method: as §2
# IL-6 = assay: as above; type: cell-based, human; details: THP-1, ligustilide 25 μM, LPS 1 μg/ml, 4 hours
# Method: as §2
# IL-8 = assay: as above; type: cell-based, human; details: THP-1, ligustilide 25 μM, LPS 1 μg/ml, 4 hours
# Method: as §2
# MIP-2 = assay: as above; type: cell-based, human; details: THP-1, ligustilide 25 μM, LPS 1 μg/ml, 4 hours
# Method: as §2
# MIP-3α = assay: as above; type: cell-based, human; details: THP-1, ligustilide 25 μM, LPS 1 μg/ml, 4 hours
# Method: as §2
# TNF-α = assay: as above; type: cell-based, human; details: THP-1, ligustilide 25 μM, LPS 1 μg/ml, 4 hours
# Method: as §2
# [2] = test system: carrageenan-induced paw edema; assay: Carrageenan-induced paw edema in rats; type: in vivo; details: rat, 100 mg/kg oral; for Paw edema volume: mean of 10
# Method: The anti-inflammatory activity of the compounds was evaluated in vivo in the carrageenan-induced paw edema rat model. This model has long been used to assess the anti-inflammatory properties of agents that inhibit prostaglandins, such as nonsteroidal anti-inflammatory drugs (NSAIDs) The model causes time-dependent edema formation following carrageenan administration into the sub-plantar surface of a rat paw. Twenty male Sprague-Dawley rats weighing 130 to 146 g were randomized in two groups. They were housed in a temperature (19.5-24.5° C.) and relative humidity (45-65%) controlled room with a 12-h light/dark cycle, with ad libitum access to filtered tap-water and standard pelleted laboratory chow throughout the study. They were housed 5 per cage and a 5-6-day acclimatization period was observed before any testing. Animals were individually identified on the tail. Ligustilide (100 mg/kg) suspended in 1% methylcellulose (in a volume of 10 mL/kg) or vehicle alone were administered by the oral route in a coded and random order after an overnight fast. One hour later, inflammation is induced by subplantar injection of a 2% carrageenan suspension into the right paw. The paw volume of each rat was measured in mL at the following time points: 0 h, 1.5 h, 3 h, and 4.5 h after the injection of carrageenan. The paw edema volume of each rat at each time point was expressed as the change from initial value. The anti-inflammatory effect on edema volume in treated-groups was expressed as % inhibition [(mean of vehicle-treated group paw edema volume−mean of the treated group paw edema volume)/mean of vehicle-treated group paw edema volume)×100]. All data of paw edema volume are expressed in mL as Mean of 10 rats in each group.
# kaolin-induced arthritis = assay: Kaolin-induced arthritis in rats, gait score; type: in vivo; details: rat, 100 mg/kg oral; for Gait score: score from 0 to 3, mean of 10; for % improvement of gait score: vs control
# Method: Twenty male Sprague Dawley rats weighing 103 g to 132 g, were included in this study. They were housed in a temperature (19.5-24.5° C.) and relative humidity (45-65%) controlled room with a 12-h light/dark cycle, with ad libitum access to filtered tap-water and standard pelleted laboratory chow, throughout the study. Upon receipt at animal facilities, they were housed 5 per cage and at least a 5-day acclimatization period were observed before any testing. Animals were individually identified on the tail. Arthritis is induced by injection of a 10% kaolin suspension into the knee joint of the rat right hindpaw. In the vehicle-treated group, injection of kaolin suspension into the knee joint of the rat right hindpaw induced an impairment of the gait, evaluated by an increase of the gait score (score from 0 to 3). Gait of animals is used to measure the spontaneous painful behavior. Ligustilide (100 mg/kg) suspended in 1% methylcellulose (in a volume of 10 ml/kg) or vehicle alone were administered by oral route in a coded and random order, 30 min after kaolin injection. The assessment of score behavior was monitored every hour from 1.5 hours to 5.5 hours following drug dosing. The mean gait score was calculated from individual values at each time. The percentage of inhibition of the mean gait score as compared to the mean value of the control group was calculated 1.5, 2.5, 3.5, 4.5 hours and 5.5 hours after dosing.
# The results are expressed for each group as the mean of the gait scores of 10 animals per group.
# Collagen 1 = assay: Gene expression in IL-1β activated chondrocytes, RT-PCR; type: cell-based; details: 4 hours, SW1353 or normal human chondrocytes, concentration not given
# Method: (§3) Articulate tissues i.e. joints contain chondrocytes. Their physiological deterioration leads to the erosion of joint tissue components and thus to e.g. osteoarthritis. We have evaluated the effect of ligustilide on catabolic events in chondrocytes. SW1353 chondrosarcoma cells or normal human chondrocytes (derived from knee) were activated with interleukin-1β in the presence of graded amount of test compounds for 4 hours. RNA was then extracted from these cells and reverse-transcribed. Expression of marker genes for catabolic events like matrix metalloproteinases (MMPs) was determined by quantitative real time polymerase chain reaction (RT-PCR). As shown in Table 5 ligustilide influenced the expression level of several MMPs, which are critically involved in the destruction of extracellular matrix. Ligustilide reduced its expression and thus is supposed to prevent tissue erosion in osteoarthritic diseases.
# Collagen 2 = assay: as above; type: cell-based; details: 4 hours, SW1353 or normal human chondrocytes, concentration not given
# Method: as §3
# MMP-13 = assay: as above; type: cell-based; details: 4 hours, SW1353 or normal human chondrocytes, concentration not given
# Method: as §3
# MMP-1 = assay: as above; type: cell-based; details: 4 hours, SW1353 or normal human chondrocytes, concentration not given
# Method: as §3
# MMP-3 = assay: as above; type: cell-based; details: 4 hours, SW1353 or normal human chondrocytes, concentration not given
# Method: as §3
# MMP-9 = assay: as above; type: cell-based; details: 4 hours, SW1353 or normal human chondrocytes, concentration not given
# Method: as §3
# [3] = test system: adhesion of U937 to human umbilical cord endothelial cells (HUVEC); assay: Adhesion of U937 monocytes to TNF-α stimulated HUVEC; type: cell-based; details: 20 hours stimulation
# Method: (§4) Artherosclerotic lesions can develop as a consequence of endothelial dysfunction. This is reflected by altered i.e. increased adhesion of monocytes to endothelial layers. We evaluated the effect of ligustilide on adhesion of U937, a monocyte cell line, to human umbilical cord endothelial cells (HUVEC). HUVEC were stimulated with TNF-α in the absence or presence of ligustilide (25 or 50 μmol/L) for 20 hours and the adhesion of U937 was determined according to Carluccio et al. (Arterioscler Thromb Vasc Biol 2003; 23, 622-629). […] Adhesion of monocytes to endothelial layers is mediated by the expression of intercellular adhesion molecule 1 (ICAM-1). Therefore, we further analyzed the effects of ligustilide on the level of ICAM-1 mRNA in HUVEC by quantitative RT-PCR.
# [4] = test system: intercellular adhesion molecule 1 (ICAM-1) mRNA; assay: ICAM-1 mRNA level in TNF-α stimulated HUVEC, quantitative RT-PCR; type: cell-based, human; details: 2 hours of stimulation
# Method: as §4
# [5] = RAW264.7, RAW 264.7, LPS 1 μg/ml, 24 hours
compound,measurement,setting,value
"CCCC[C@@H]1OC(=O)c2ccccc21 [3-Butylphthalide, 3S-Butylphthalide]",IC50,PGE2 production; [5],3 µM
CCC/C=C1\OC(=O)C2=C1CCC=C2 [Ligustilide],IC50,[1],12.2 ± 3.1 µM
same,IC50,PGE2 production; [5],3.2 µM
same,"Gene expression (in %) relative to LPS control, COX-2",COX-2,24.1%
same,"Gene expression (in %) relative to LPS control, IL-1α",IL-1α,15.2%
same,"Gene expression (in %) relative to LPS control, IL-6",IL-6,52.3%
same,"Gene expression (in %) relative to LPS control, IL-8",IL-8,72.4%
same,"Gene expression (in %) relative to LPS control, MIP-2",MIP-2,52.0%
same,"Gene expression (in %) relative to LPS control, MIP-3α",MIP-3α,67.2%
same,"Gene expression (in %) relative to LPS control, TNF-α",TNF-α,50.6%
same,% Inhibition of paw edema volume vs vehicle-treated group,[2]; 1.5 h after carrageenan,29%
same,Paw edema volume,[2]; 1.5 h after carrageenan,0.17 mL
same,% Inhibition of paw edema volume vs vehicle-treated group,[2]; 3 h after carrageenan,27%
same,Paw edema volume,[2]; 3 h after carrageenan,0.32 mL
same,% Inhibition of paw edema volume vs vehicle-treated group,[2]; 4.5 h after carrageenan,11%
same,Paw edema volume,[2]; 4.5 h after carrageenan,0.40 mL
same,Gait score,kaolin-induced arthritis; 1.5 hours after dosing,0.3
same,% improvement of gait score,kaolin-induced arthritis; 1.5 hours after dosing,25%
same,Gait score,kaolin-induced arthritis; 2.5 hours after dosing,0.4
same,% improvement of gait score,kaolin-induced arthritis; 2.5 hours after dosing,43%
same,Gait score,kaolin-induced arthritis; 3.5 hours after dosing,0.6
same,% improvement of gait score,kaolin-induced arthritis; 3.5 hours after dosing,50%
same,Gait score,kaolin-induced arthritis; 4.5 hours after dosing,0.9
same,% improvement of gait score,kaolin-induced arthritis; 4.5 hours after dosing,53%
same,Gait score,kaolin-induced arthritis; 5.5 hours after dosing,1.3
same,% improvement of gait score,kaolin-induced arthritis; 5.5 hours after dosing,38%
same,Analgesic effect in comparison to the control group,"kaolin-induced arthritis; at 3.5, 4.5 and 5.5 hours after dosing",significant analgesic effect
same,"Gene expression (in %) relative to IL-1β activated chondrocytes, Collagen 1",Collagen 1,115%
same,"Gene expression (in %) relative to IL-1β activated chondrocytes, Collagen 2",Collagen 2,184%
same,"Gene expression (in %) relative to IL-1β activated chondrocytes, MMP-13",MMP-13,50%
same,"Gene expression (in %) relative to IL-1β activated chondrocytes, MMP-1",MMP-1,17%
same,"Gene expression (in %) relative to IL-1β activated chondrocytes, MMP-3",MMP-3,2%
same,"Gene expression (in %) relative to IL-1β activated chondrocytes, MMP-9",MMP-9,33%
same,% reduction of adherence,[3]; TNF-α + 25 μM ligustilide,39%
same,Number of adherent cells,[3]; TNF-α + 25 μM ligustilide,61 ± 25
same,% reduction of adherence,[3]; TNF-α + 50 μM ligustilide,73%
same,Number of adherent cells,[3]; TNF-α + 50 μM ligustilide,27 ± 21
same,% reduction of expression (ICAM-1 mRNA),[4]; TNF-α + 25 μM ligustilide,58%
same,Relative ICAM-1 mRNA level,[4]; TNF-α + 25 μM ligustilide,25 ± 6 arbitrary units
same,% reduction of expression (ICAM-1 mRNA),[4]; TNF-α + 50 μM ligustilide,73%
same,Relative ICAM-1 mRNA level,[4]; TNF-α + 50 μM ligustilide,16 ± 1 arbitrary units
"CCC/C=C1\OC(=O)c2ccccc21 [N-Butylidenephthalide, E + Z-3-Butylidenephthalide]",IC50,"PGE2 production; RAW264.7, 24 h",3 µM
